Reference: patent publication US20020169193A1, “Alkylphenyliminoimidazolidine derivatives for treating urinary incontinence” (priority 2001, published 2002)

Legend:
[1] = tested on: dog's femoral artery / carotid artery in the dog; assay: Selectivity in the dog: femoral artery versus carotid artery contraction; conditions: percentage contraction of femoral artery at 10^−5 M — percentage contraction of carotid artery at 10^−5 M
Experimental: (§1) The efficacy and selectivity of the compounds is determined as follows:
(§2) Maximum contraction in the dog and activity on human urethra are percentages of contraction compared with noradrenaline. Selectivity in the dog is the percentage contraction of the dog's femoral artery at 10^−5 M—percentage contraction of the carotid artery in the dog at 10^−5 M.

the Dog = assay: Efficacy: maximum contraction in the dog compared with noradrenaline; conditions: percentage of contraction compared with noradrenaline
Experimental: as §1, §2

Human Urethra = assay: Efficacy: contraction of human urethra compared with noradrenaline; conditions: percentage of contraction compared with noradrenaline
Experimental: as §1, §2

HLM = assay: Metabolism: decomposition under the effect of HLM; format: in vitro ADME
Experimental: The decomposition under the effect of the enzyme HLM/60 minutes was tested analogously.

CYP2D6 = CYP2D6 (Homo sapiens, UniProt P10635); assay: Metabolism: substrate breakdown by enzyme CYP2D6; format: in vitro ADME
Experimental: To determine the metabolism the enzyme CYP2D6 was allowed to act on the test substances. After 30 minutes, a check was made to see how much of the test substance put in had been degraded by the enzyme.

[2] = Bioavailability, oral versus intravenous administration in rats, plasma HPLC; format: in vivo; conditions: male fasted rats, oral vs intravenous, pooled plasma; for bioavailability: rat
Experimental: To determine the bioavailability, the test substances were administered orally to a group of 8 male fasted rats. As a control, animals in an identical second group were given the test substances intravenously. At specified times after administration (10 minutes, 30 minutes, 1 hour, 2 hours and 4 hours, and additionally 6 hours in the case of the animals in the oral group) 1 mL blood samples were taken from the animals in both groups. The blood samples taken in each group were mixed together (8 mL). The content of the corresponding test substances in the blood for the appropriate time was determined from the plasma after further working up by HPLC (High Performance Liquid Chromatography) using standard methods and correlated for the two groups.

Chain of CYP2D6 (P10635 whole entry): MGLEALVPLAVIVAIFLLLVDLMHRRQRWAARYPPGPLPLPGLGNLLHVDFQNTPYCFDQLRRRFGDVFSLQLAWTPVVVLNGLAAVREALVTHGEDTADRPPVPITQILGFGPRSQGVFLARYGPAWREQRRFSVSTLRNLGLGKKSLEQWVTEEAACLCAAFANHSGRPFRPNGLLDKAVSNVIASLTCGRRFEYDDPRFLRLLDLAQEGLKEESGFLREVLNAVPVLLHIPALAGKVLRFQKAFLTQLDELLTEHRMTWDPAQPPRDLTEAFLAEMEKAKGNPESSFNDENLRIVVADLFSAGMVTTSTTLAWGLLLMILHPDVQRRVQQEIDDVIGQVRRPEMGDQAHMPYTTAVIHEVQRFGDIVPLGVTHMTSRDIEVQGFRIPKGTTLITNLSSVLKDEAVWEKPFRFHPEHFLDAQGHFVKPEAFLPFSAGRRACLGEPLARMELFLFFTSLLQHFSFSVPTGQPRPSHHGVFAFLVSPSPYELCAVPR

SMILES	Selectivity in the Dog [1]	Activity in the Dog (the Dog) [%]	Activity on Human Urethra (Human Urethra) [%]	% Substrate Breakdown After 60 Minutes Incubation with HLM (HLM) [%]	% Substrate Breakdown After 30 Minutes Incubation with CYP2D6 (CYP2D6) [%]	Bioavailability in % [2] [%]	bioavailability [2] [%]
Cc1c(NC2=NCCN2)cccc1C(C)C [Compound 1, 3′-isopropyl-2′-methylphen-1′-yl-2-iminoimidazolidine]	0.7	78	11	13.5	18.2	–	–
COc1ccc(C(C)(C)C)cc1N=C1NCCN1 [Compound 2, 3′-tert-butyl-6′-methoxyphen-1′-yl-2-iminoimidazolidine]	0.6	71	30	2.7	0.7	34	–
Cc1c(C(C)C)ccc(Cl)c1NC1=NCCN1 [Compound 3, 6′-chloro-3′-isopropyl-2′-methylphen-1′-yl-2-iminoimidazolidine]	0.7	70	41	11.7	6.1	–	8
Cc1c(NC2=NCCN2)ccc(Cl)c1C(C)C [Compound 4, 4′-chloro-3′-isopropyl-2′-methylphen-1′-yl-2-iminoimidazolidine]	0.5	59	–	5.5	7.6	–	–
Cc1c(C(C)C)ccc(Br)c1NC1=NCCN1 [Compound 5, 6′-bromo-3′-isopropyl-2′-methylphen-1′-yl-2-iminoimidazolidine]	0.4	34	–	7.5	8.7	–	–
CC(C)(C)c1ccc(Br)c(N=C2NCCN2)c1 [Compound 6, 6′-bromo-3′-tert-butylphen-1′-yl-2-iminoimidazolidine]	–	28	–	2.8	3.0	–	–
Cc1c(NC2=NCCN2)ccc(Br)c1C(C)C [Compound 7, 4′-bromo-3′-isopropyl-2′-methylphen-1′-yl-2-iminoimidazolidine]	0.7	70	21	–	5.0	–	53
